Reference: patent publication US12268674B2, “Mi-2β inhibitor as an immunotherapy agent” (BioVentures, LLC, priority 2021, dated 2025)

Experiments:
[1] = Tolerability in C57BL/6 mice (body weight, H&E staining of tissues); format: in vivo; settings: 30 mg/kg/day for 2 weeks
Text: FIG. 11 illustrates In vitro assay for Mi-2β inhibitors. A, The inhibitory activity of Z36 for Mi-2β chromatin modulatory activity, measured as fold changes of Mi-2β activity treated with control vehicle. B, The inhibitory activity of Z36-MP5 with IC50 values against Mi-2β at different ATP concentrations. The curves from top to bottom: ATP 300 (μM), ATP 100 (μM), ATP 30 (μM), and ATP 10 (μM). C, The expression of Irf1, Cxc19 and Cxcl10 and Irf1 mRNA in B16F10 cells treated with Z36-MP5 as indicated concentration for 24 hours was determined with RT-qPCR assay. The four bars from left to right: vehicle control, Z36-MP5 5 μM, Z36-MP5 25 μM, and Z36-MP5 100 μM. D, Z36-MP5-treated (25 μM) GFP-labelled B16F10 cells were pretreated with 10 ng/ml of IFN-γ for 24 hours, before co-culture with activated Pmel-1 T cells at a ratio of 1:1 for three days. The fold changes of survival GFP-positive tumor cells were assayed with flow cytometry. Data presents as means±SD E, The body weight changes of C57BL/6J mice treated with Z36-MP5 (30 mg/kg/day) for 2 weeks. Data are mean±SEM (n=5). […]
Z36-MP5 was chosen for further validation and experimental therapeutics in vivo. […] To investigate its cellular inhibitory activity, B16-F10 cells were treated with Z36-MP5 at concentrations ranging from 5 to 100 μM, and the activation of Mi-2β target genes measured by RT-qPCR. […]

AARS = target: T1, AARS (Homo sapiens, UniProt P49588); test: ATPase profile (ATP acyl phosphate probe); format: binding; settings: SEQ ID NO: 1, ATP BS
T1 construct: to get the native cell lysate; host or cells: A375 cell lysate

ABCF3 = target: T2, ABCF3 (Homo sapiens, UniProt Q9NUQ8); test: ATPase profile (ATP acyl phosphate probe); format: binding; settings: ABCF3, SEQ ID NO: 19, ATP BS
T2 construct: to get the native cell lysate; host or cells: A375 cell lysate
T2 sequence (Q9NUQ8 whole entry): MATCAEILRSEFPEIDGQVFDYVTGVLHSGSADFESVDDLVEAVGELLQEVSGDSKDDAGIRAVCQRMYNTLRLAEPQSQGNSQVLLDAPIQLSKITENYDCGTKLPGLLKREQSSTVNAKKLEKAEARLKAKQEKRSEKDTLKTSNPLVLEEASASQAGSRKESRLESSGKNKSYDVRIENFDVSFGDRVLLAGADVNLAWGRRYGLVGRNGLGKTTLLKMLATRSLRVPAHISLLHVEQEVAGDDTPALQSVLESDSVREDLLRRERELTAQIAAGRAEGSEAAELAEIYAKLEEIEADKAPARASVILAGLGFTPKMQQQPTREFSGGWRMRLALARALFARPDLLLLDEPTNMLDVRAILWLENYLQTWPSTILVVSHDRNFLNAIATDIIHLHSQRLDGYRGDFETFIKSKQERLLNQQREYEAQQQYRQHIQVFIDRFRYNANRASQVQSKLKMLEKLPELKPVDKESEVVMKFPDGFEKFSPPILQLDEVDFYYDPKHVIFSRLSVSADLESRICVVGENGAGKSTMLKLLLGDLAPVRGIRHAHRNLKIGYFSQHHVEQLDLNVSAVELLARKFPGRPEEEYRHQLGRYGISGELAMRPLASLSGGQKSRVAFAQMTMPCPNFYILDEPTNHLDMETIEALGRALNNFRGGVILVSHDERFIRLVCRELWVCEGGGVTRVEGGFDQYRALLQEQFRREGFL

AK2 = target: T3, AK2 (Homo sapiens, UniProt P54819); test: ATPase profile (ATP acyl phosphate probe); format: binding; settings: AK2, SEQ ID NO: 33, ATP BS
T3 construct: to get the native cell lysate; host or cells: A375 cell lysate

AK5 = target: T4, AK5 (Homo sapiens, UniProt Q9Y6K8); test: ATPase profile (ATP acyl phosphate probe); format: binding; settings: AK5, SEQ ID NO: 36, ATP BS
T4 construct: to get the native cell lysate; host or cells: A375 cell lysate

ATP5B = target: T5, ATP5B (Homo sapiens, UniProt P06576); test: ATPase profile (ATP acyl phosphate probe); format: binding; settings: SEQ ID NO: 48, ATP BS
T5 construct: to get the native cell lysate; host or cells: A375 cell lysate

BAT1, DDX39 = test: ATPase profile (ATP acyl phosphate probe); format: binding; settings: BAT1, DDX39, SEQ ID NO: 50, ATP BS
DDX18 = target: T6, DDX18 (Homo sapiens, UniProt Q9NVP1); test: ATPase profile (ATP acyl phosphate probe); format: binding; settings: DDX18, SEQ ID NO: 66, ATP BS
T6 construct: endogenous in cells; host or cells: A375 cell lysate

DDX3X = target: T7, DDX3X (Homo sapiens, UniProt O00571); test: ATPase profile (ATP acyl phosphate probe); format: binding; settings: SEQ ID NO: 70, ATP BS
T7 construct: endogenous in cells; host or cells: A375 cell lysate

GARS = target: T8, GARS (Homo sapiens, UniProt P41250); test: ATPase profile (ATP acyl phosphate probe); format: binding; settings: SEQ ID NO: 79, ATP BS
T8 construct: endogenous in cells; host or cells: A375 cell lysate

HARS = target: T9, HARS (Homo sapiens, UniProt P12081); test: ATPase profile (ATP acyl phosphate probe); format: binding; settings: SEQ ID NO: 89, ATP BS
T9 construct: endogenous in cells; host or cells: A375 cell lysate

HSP90AB1, HSP90AB3P = target: T10, HSP90AB1, HSP90AB3P (Homo sapiens, UniProt P08238); test: ATPase profile (ATP acyl phosphate probe); format: binding; settings: SEQ ID NO: 98, ATP BS
T10 construct: to get the native cell lysate; endogenous in cells; host or cells: A375

HSPA1A = target: T11, HSPA1A (Homo sapiens, UniProt P0DMV8); test: ATPase profile (ATP acyl phosphate probe); format: binding
T11 construct: to get the native cell lysate; endogenous in cells; host or cells: A375
T11 sequence (P0DMV8 whole entry): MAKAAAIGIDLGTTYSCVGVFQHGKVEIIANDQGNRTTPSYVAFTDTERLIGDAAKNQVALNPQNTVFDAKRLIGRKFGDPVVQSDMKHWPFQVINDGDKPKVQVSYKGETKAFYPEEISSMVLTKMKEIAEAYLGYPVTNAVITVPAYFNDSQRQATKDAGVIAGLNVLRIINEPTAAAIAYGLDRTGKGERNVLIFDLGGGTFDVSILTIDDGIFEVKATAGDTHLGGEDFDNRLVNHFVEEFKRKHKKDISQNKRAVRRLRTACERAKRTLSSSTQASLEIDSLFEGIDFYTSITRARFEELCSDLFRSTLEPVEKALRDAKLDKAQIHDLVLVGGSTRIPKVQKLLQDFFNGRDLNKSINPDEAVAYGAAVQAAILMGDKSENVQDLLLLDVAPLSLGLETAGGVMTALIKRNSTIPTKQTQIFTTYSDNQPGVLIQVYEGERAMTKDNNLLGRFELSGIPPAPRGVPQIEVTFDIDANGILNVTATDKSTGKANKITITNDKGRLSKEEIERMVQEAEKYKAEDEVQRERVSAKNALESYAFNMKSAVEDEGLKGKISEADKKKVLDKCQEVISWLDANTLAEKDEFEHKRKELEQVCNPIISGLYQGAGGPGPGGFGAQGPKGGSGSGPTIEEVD

NADK2 = target: T12, NADK2 (Homo sapiens, UniProt Q4G0N4); test: ATPase profile (ATP acyl phosphate probe); format: binding; settings: NADK2, SEQ ID NO: 129, ATP BS
T12 construct: to get the native cell lysate; endogenous in cells; host or cells: A375

NUDT7 = target: T13, NUDT7 (Homo sapiens, UniProt P0C024); test: ATPase profile (ATP acyl phosphate probe); format: binding; settings: NUDT7, SEQ ID NO: 147, ATP BS
T13 construct: to get the native cell lysate; endogenous in cells; host or cells: A375

PRKAG1 = PRKAG1 (Homo sapiens, UniProt P54619); test: ATPase profile (ATP acyl phosphate probe); format: binding
Chain of PRKAG1 (P54619 whole entry): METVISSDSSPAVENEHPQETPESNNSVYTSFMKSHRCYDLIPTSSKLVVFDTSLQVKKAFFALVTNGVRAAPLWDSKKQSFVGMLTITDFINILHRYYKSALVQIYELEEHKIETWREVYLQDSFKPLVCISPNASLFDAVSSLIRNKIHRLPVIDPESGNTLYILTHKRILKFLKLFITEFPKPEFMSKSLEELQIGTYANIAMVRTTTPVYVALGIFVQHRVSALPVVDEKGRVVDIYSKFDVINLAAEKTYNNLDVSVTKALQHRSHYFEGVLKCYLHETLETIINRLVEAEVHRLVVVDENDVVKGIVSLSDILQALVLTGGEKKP
Chain of PRKAG1 (Q13131 whole entry partner): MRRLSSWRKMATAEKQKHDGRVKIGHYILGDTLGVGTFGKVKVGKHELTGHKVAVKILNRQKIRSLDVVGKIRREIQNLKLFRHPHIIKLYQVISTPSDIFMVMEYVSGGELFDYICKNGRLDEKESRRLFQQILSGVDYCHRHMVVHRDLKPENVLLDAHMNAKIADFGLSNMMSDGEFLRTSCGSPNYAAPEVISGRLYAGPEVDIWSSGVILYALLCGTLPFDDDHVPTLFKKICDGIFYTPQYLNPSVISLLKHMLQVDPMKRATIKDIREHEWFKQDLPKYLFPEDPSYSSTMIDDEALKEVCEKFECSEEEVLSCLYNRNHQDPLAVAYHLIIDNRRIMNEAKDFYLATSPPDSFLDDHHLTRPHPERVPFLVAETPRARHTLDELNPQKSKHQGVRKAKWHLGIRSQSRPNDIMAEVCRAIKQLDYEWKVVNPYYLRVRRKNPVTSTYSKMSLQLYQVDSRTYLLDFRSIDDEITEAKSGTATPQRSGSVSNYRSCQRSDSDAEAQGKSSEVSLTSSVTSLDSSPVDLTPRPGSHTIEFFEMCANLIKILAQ
Chain of PRKAG1 (Q9Y478 whole entry partner): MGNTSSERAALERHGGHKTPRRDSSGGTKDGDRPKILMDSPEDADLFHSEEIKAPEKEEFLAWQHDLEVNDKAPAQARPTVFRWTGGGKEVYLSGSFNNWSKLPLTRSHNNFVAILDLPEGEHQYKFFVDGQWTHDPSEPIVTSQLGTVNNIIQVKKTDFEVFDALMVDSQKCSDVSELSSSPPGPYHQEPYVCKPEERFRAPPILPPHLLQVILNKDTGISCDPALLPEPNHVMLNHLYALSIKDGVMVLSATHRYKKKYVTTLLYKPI

RFC1 = target: T14, RFC1 (Homo sapiens, UniProt P35251); test: ATPase profile (ATP acyl phosphate probe); format: binding; settings: RFC1, SEQ ID NO: 183, ATP BS
T14 construct: to get the native cell lysate; endogenous in cells; host or cells: A375 cell lysate

TOR3A = target: T15, TOR3A (Homo sapiens, UniProt Q9H497); test: ATPase profile (ATP acyl phosphate probe); format: binding; settings: SEQ ID NO: 206, ATP BS
T15 construct: to get the native cell lysate; endogenous in cells; host or cells: A375 cell lysate
T15 sequence (Q9H497 26-397): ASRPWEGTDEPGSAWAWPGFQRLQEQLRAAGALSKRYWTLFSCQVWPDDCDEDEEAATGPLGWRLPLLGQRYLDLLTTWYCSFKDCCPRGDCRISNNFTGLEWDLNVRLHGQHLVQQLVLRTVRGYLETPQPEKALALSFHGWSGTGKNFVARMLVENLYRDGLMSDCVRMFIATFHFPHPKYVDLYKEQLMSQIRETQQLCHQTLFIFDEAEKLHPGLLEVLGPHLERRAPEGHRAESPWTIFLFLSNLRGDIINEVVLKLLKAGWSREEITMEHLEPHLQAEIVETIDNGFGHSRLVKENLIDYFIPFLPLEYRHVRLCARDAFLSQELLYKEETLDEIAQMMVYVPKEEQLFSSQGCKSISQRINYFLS

XRCC6 = target: T16, XRCC6 (Homo sapiens, UniProt P12956); test: ATPase profile (ATP acyl phosphate probe); format: binding; settings: XRCC6, SEQ ID NO: 232, ATP BS
T16 construct: to get the native cell lysate; endogenous in cells; host or cells: A375 cell lysate
T16 sequence (P12956 2-609 limits assumed): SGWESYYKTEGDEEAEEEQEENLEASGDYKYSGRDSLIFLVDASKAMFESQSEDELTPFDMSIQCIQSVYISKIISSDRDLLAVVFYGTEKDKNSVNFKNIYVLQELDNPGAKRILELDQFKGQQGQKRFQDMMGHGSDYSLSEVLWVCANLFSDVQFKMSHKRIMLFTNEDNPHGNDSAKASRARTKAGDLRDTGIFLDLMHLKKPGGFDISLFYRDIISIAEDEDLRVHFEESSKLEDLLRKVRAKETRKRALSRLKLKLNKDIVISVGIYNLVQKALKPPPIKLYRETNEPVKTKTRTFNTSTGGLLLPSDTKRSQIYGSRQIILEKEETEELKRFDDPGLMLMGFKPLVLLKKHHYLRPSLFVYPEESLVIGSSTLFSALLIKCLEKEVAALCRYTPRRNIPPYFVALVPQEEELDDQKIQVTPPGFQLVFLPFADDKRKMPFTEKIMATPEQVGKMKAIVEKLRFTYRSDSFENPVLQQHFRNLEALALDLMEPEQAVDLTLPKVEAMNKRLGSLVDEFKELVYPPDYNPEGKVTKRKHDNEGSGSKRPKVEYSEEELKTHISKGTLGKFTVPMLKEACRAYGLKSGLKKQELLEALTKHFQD
T16 sequence (P13010 2-732 partner limits assumed): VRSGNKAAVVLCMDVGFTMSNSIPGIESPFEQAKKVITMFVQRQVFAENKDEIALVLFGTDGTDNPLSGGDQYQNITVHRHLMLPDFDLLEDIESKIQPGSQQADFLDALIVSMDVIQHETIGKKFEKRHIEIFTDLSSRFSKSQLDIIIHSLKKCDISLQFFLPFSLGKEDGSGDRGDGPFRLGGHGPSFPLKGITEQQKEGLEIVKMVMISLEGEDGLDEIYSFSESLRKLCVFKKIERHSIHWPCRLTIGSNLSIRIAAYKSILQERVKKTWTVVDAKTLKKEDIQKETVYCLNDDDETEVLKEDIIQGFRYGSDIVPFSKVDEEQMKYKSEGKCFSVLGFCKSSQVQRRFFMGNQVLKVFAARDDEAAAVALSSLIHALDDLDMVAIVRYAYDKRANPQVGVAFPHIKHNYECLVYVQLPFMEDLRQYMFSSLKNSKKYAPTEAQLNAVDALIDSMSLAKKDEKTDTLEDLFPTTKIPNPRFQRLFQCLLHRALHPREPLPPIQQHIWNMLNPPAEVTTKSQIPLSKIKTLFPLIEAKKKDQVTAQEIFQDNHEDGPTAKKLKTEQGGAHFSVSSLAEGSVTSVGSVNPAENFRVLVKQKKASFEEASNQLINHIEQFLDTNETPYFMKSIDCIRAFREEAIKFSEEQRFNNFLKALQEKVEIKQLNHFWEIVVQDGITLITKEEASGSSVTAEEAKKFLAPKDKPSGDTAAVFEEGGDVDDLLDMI

YME1L1 = target: T17, YME1L1 (Homo sapiens, UniProt Q96TA2); test: ATPase profile (ATP acyl phosphate probe); format: binding; settings: YME1L1, SEQ ID NO: 233, ATP BS
T17 construct: to get the native cell lysate; endogenous in cells; host or cells: A375 cell lysate
T17 sequence (Q96TA2 whole entry): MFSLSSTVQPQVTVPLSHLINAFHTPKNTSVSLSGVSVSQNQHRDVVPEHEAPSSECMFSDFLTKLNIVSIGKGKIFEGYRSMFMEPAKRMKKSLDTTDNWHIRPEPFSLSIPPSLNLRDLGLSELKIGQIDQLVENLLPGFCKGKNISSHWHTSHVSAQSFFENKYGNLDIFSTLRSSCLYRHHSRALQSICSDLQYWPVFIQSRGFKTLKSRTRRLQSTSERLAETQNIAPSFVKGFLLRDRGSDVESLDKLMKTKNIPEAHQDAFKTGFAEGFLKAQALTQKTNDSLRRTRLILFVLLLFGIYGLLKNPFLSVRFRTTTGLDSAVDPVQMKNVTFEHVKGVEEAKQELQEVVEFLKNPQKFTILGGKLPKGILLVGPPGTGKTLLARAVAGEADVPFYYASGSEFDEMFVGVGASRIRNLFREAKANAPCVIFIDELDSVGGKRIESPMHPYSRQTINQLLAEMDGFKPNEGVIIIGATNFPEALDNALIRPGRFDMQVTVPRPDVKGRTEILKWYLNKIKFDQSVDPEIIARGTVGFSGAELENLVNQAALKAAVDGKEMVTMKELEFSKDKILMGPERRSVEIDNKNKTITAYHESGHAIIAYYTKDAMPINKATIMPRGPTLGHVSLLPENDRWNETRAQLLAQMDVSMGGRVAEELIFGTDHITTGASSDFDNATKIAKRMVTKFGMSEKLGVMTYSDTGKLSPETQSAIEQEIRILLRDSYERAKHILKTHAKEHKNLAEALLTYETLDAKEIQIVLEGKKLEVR

Cn1c(=O)[nH]c2ccc(-c3cccc(C(=O)NC4CCn5ccnc5C4)c3)cc21 (stereo not shown) [Z36-MP5, 3-(3-methyl-2-oxo-2,3-dihydro-1H-benzo[d]imidazol-5-yl)-N-(5,6,7,8-tetrahydroimidazo[1,2-a]pyridin-7-yl)benzamide]
tolerability (mouse weight, organ tissue histological staining) [1]: tolerated without significant toxicity
Inhibition (%) by 1 μM Z36-MP5 (AARS): −29.97%
Inhibition (%) by 1 μM Z36-MP5 (ABCF3): 5.45%
Inhibition (%) by 1 μM Z36-MP5 (AK2): −4.75%
Inhibition (%) by 1 μM Z36-MP5 (AK5): 2.21%
Inhibition (%) by 1 μM Z36-MP5 (ATP5B): −14.96%
Inhibition (%) by 1 μM Z36-MP5 (BAT1, DDX39): −10.93%
Inhibition (%) by 1 μM Z36-MP5 (DDX18): −5.33%
Inhibition (%) by 1 μM Z36-MP5 (DDX3X): 11.22%
Inhibition (%) by 1 μM Z36-MP5 (GARS): 16.66%
Inhibition (%) by 1 μM Z36-MP5 (HARS): 4.68%
Inhibition (%) by 1 μM Z36-MP5 (HSP90AB1, HSP90AB3P): −16.94%
Inhibition (%) by 1 μM Z36-MP5 (HSPA1A; SEQ ID NO: 100, ATP BS): −9.44%
Inhibition (%) by 1 μM Z36-MP5 (HSPA1A; SEQ ID NO: 101, ATP BS): −15.23%
Inhibition (%) by 1 μM Z36-MP5 (NADK2): −11.03%
Inhibition (%) by 1 μM Z36-MP5 (NUDT7): 19.75%
Inhibition (%) by 1 μM Z36-MP5 (PRKAG1; PRKAG1, SEQ ID NO: 167, ATP BS): −11.56%
Inhibition (%) by 1 μM Z36-MP5 (PRKAG1; PRKAG1, SEQ ID NO: 168, ATP BS): −7.08%
Inhibition (%) by 1 μM Z36-MP5 (RFC1): −12.52%
Inhibition (%) by 1 μM Z36-MP5 (TOR3A): 6.55%
Inhibition (%) by 1 μM Z36-MP5 (XRCC6): 10.61%
Inhibition (%) by 1 μM Z36-MP5 (YME1L1): −10.37%
